SMILES strings stand for the structures. Some results are limits rather than exact numbers.

By melting point is commonly meant the temperature, or range, at which the solid turns liquid. Compound `CC(C)c1cc(C(C)C)c(CC(=O)NS(=O)(=O)Oc2c(C(C)C)cc(CNC(=O)CN)cc2C(C)C)c(C(C)C)c1` yielded a melting point of 193 to 195 °C.
`N=C(N)Nc1nc(CO)cs1`: the melting point was 163 to 165 °C.
Take `CNc1cc(Oc2ccc(Cl)cc2Cn2ccnc2)ccc1[N+](=O)[O-]`: the melting point came to 130 °C.
The same measure for `O=c1[nH]c2cc(Cl)c(Cl)cc2n2ccnc12`: more than 300 °C.
The same measure for `COc1ccc([N+](=O)[O-])c(C=CN2CCCC2)c1Cl`: 89 to 92 °C; for `COc1ccc2c(c1)C(=O)c1c-2c(N2CCNCC2)nc2ccc(F)cc12`: 157 to 158 °C.
The compound `C[C@]1(COc2ccc(N3CCC(Oc4ccc(OC(F)(F)F)cc4)CC3)nc2)Cn2cc([N+](=O)[O-])nc2O1` came in with a melting point of 186 to 187 °C.
Next, `Cc1cnc(Sc2nc(C)c(CC(=O)O)s2)c(C(=O)O)c1`: 229 to 231 °C; `O=C(O)COc1ccc(SCc2ccc(OCc3cc(Cl)ccc3Cl)cc2)c2c1CCC2`: 158 to 160 °C; `NCc1ccc2c(c1)C(=O)c1ccccc1C2=O`: 170 to 178 °C.
Next, `CCCCOC(=O)c1ccc2c(C(=O)c3ccc(OCCN4CCCCC4)cc3)c(-c3ccc(O)cc3)sc2c1`: 87 to 90 °C; `c1ccc(Nc2nc(-c3cn[nH]c3)c(N3CCCCC3)s2)nc1`: 238 °C.
Next, `CCC(C)(C)Nc1c(NCc2cc(C)ccc2C)c(=O)c1=O`: 199 to 200 °C.
The compound `COc1ccc2c(=O)c3oc4c5ccccc5ccc4c3oc2c1` had a melting point of 282 to 284 °C.
In the case of `CCS(=O)(=O)Nc1cccc(C)c1C(N)c1cccn2c(C)c(C)nc12` (stereo not drawn), the melting point lay within 240 to 242 °C.
`Clc1c2ccccc2nc2c1cnn2-c1ccccn1`: the melting point is 153 to 156 °C.
`CN(C(=O)c1ccc2nonc2c1)C1CCCCC1O` (stereo not drawn) gave a melting point of 148 to 149 °C.
Next, `CC(=O)N1CCC2(CC1)CC(=O)c1cc(S(C)(=O)=O)ccc1O2`: 105 to 110 °C; `Cc1noc(-c2ccc(F)cc2N)n1`: 146 to 148 °C; `CC(C)N(C(=O)C(F)(F)F)c1cc2c(cc1C(=O)c1ccccc1)OCO2`: 100 to 102 °C.
Next, `CCOC(=O)c1cn(CC)c2cc(OS(=O)(=O)C(F)(F)F)c(F)cc2c1=O`: 83 to 85 °C; `CCOC1Nc2c(Br)cc(Br)cc2S(=O)(=O)N1` (stereo not drawn): 96 to 98 °C.
With `COc1c(C)c(NC(=O)CC(C)(C)C)c(C)c2c1OCC2c1ccc(C(C)C)cc1` (stereo not drawn), the melting point is 150 to 151 °C.
Next, `COC(=O)C1(NC(=O)Cc2cc(-c3ccc(F)cc3)ccc2C)CCC(F)(F)CC1`: 187 °C.
The same measure for `CC(C)NCC(O)COc1cccc(Cl)c1Cl` (stereo not drawn): 94 to 96 °C; for `O=C(O)C=Cc1cn(CC(C(=O)c2ccc(Cl)cc2Cl)c2ccccc2)cn1` (stereo not drawn): 229 to 231 °C.
For the compound `CCS(=O)(=O)c1cc2c(c(C(=O)Cl)c1)OCCO2`, the melting point is 146 to 147 °C.
The same measure for `Cn1c(C(F)(F)F)cc(=O)n(-c2ccc3snc(C=C(Br)Br)c3c2)c1=O`: 260 to 262 °C; for `N#CC1(N2CCC(O)CC2)CCSCC1`: 79 to 81 °C; for `COc1ccc(S(=O)(=O)NCC(O)(Cn2cncn2)c2ccc(Cl)cc2Cl)cc1` (stereo not drawn): 56 to 66 °C.
The same measure for `O=C(O)CCCCCNC(=O)c1cccc2c(=O)c3ccccc3[nH]c12`: 218 °C; for `CC(C)OC(=O)C(C(=O)NCc1ccccc1)=C1SCS1`: 93 to 94 °C; for `CC1Cc2c(cc(C(C)(C)C)c(O)c2C(C)(C)C)O1` (stereo not drawn): 86.8 °C.
On to `CCOCCOc1nc2c(c3ccccc13)c1cc(Cl)ccc1n2C`, for which the melting point was 93.5 to 95.5 °C.
The same measure for `Cn1c(=N)sc2cc(OC(F)(F)F)ccc21`: 60 to 62 °C.
The same measure for `CCCCCCCCCCCCCCCCNc1ccc(C(=O)NS(=O)(=O)c2ccc(C(C)(C)C)cc2)cc1`: 173 to 176 °C; for `COC(=N)NC(=O)CCl`: 123 °C; for `COC(=O)c1cc(CCN(C)CCCC(C#N)(c2ccc(OC)c(OC)c2)C(C)C)cc(C(=O)OC)c1` (stereo not drawn): 100 to 103 °C.
The same measure for `CN(C(=O)OC(C)(C)C)C1CCN(c2nc(N3CCOCC3)nc(-n3c(C(F)F)nc4c(O)cccc43)n2)CC1`: 220 to 222 °C; for `Cc1cc2c(-c3ccccc3Cl)c(NC(=O)Nc3ccccc3)c(=O)n(C)c2cc1C`: 218 to 219 °C.
As for `CC(C)n1cc(C2CCC(=O)CC2)c2cc(C#N)ccc21`, the melting point was 106 to 107 °C.
In the case of `Fc1cc(Cl)c(OC2CCCC2)cc1-n1nc2c(c1Cl)CCCC2`, the melting point fell in the range of 88 to 91 °C.
Next, `CC(C)c1cc([N+](=O)[O-])ccc1OCC1CO1` (stereo not drawn): 60 to 62 °C.
Next, `CN1CC(c2ccccc2)c2ccccc2C(c2ccccc2)C1(C)C` (stereo not drawn): 137 to 138 °C; `CCOC(=O)N1CCN(c2nc(NC(C)=O)ccc2[N+](=O)[O-])CC1`: 168 to 169 °C.
The same measure for `CCOC(=O)/C(F)=C/c1ccc(Br)cc1`: 59 to 61 °C; for `COc1ccc(-c2[nH]nc3c2C(=O)c2c(NC(=O)Cc4cccc(OC)c4)cccc2-3)cc1`: more than 300 °C.
`COC(=O)C1=C(C)NC(C)=C(C(=O)OC)C1c1ccc(F)c(Nc2c(NCCCN3CCC(c4cccc(OC)c4)CC3)c(=O)c2=O)c1` came in with a melting point of 205 to 207 °C.
Take `COc1ccc(Cl)cc1C(=O)NCCc1ccc(CCCCCCC(=O)O)cc1`: the melting point was determined as 36 °C.
Next, `COc1ccc(C(=C/C=C/C(=O)NC(C)(C)CCCc2cccnc2)c2ccc(OC)cc2)cc1`: 144 to 145 °C; `COc1ccc2c(c1)S(=O)c1nccnc1N2` (stereo not drawn): 240 to 241 °C; `COc1cccc(C(=O)NN2C(c3ccccc3)=NOC2(C)C)c1C`: 141 to 142 °C.
The compound `CCOC(=O)c1c(Cl)nn(C)c1S(N)(=O)=O` registered a melting point of 121 to 123 °C.
The same measure for `COCCOc1ccc2c(C(C[N+](=O)[O-])c3cccc(NC(=O)OCc4ccccc4)c3C)c[nH]c2c1` (stereo not drawn): 125 °C; for `CC1(C)CC(OC(=O)CCCCCCCCC(=O)OC2CC(C)(C)PC(C)(C)C2)CC(C)(C)P1` (stereo not drawn): 58 to 63 °C.
Compound `O=C(O)COc1cccc2c1CCc1sc(SCCC(c3ccccc3)c3ccccc3)nc1-2` registered a melting point of 128 to 130 °C.
The same measure for `O=C1Nc2ccccc2SC1CCCCl` (stereo not drawn): 98 to 99 °C.
Next, `Cn1nc(C=O)c(Br)c1C(C)(C)CNC(=O)c1ccccc1`: 150 to 151 °C; `COc1cc(C)c(C)cc1NC(=S)N1CCN(c2cc(Cl)cc(Cl)c2)CC1`: 188 to 189 °C; `COC(=O)C(C)Oc1cccc2c1c(C(=O)C(N)=O)c(C)n2Cc1ccccc1` (stereo not drawn): 175 °C.
Consider `Cc1c(F)cc(O)c2c(=O)c(C(=O)O)cn([C@@H]3C[C@@H]3F)c12`, for which the melting point lay in the range of 209 to 213 °C.
Next, `COc1ccc(S(=O)(=O)Nc2ccccc2NC(=O)c2ccc(F)cc2Cl)cc1`: 160 to 162 °C.
The same measure for `NS(=O)(=O)c1ccc(-n2cccc2-c2ccc(F)cc2)cc1`: 198 to 199 °C; for `CC(=O)OCC1OC(n2cnc3c(NCC(c4ccccc4)c4ccccc4)ncnc32)C(OC(C)=O)C1OC(C)=O` (stereo not drawn): 75 to 80 °C.
Next, `O=[N+]([O-])c1cccc(NS(=O)(=O)c2ccccc2)c1`: 132 to 134 °C.
Regarding `CN1CCN(c2c(F)cc3c(=O)c(C(=O)O)cn(C4CC4)c3c2C#N)CC1`, the melting point lay in the range of 264 to 265 °C.
Next, `Cc1cc(-c2cc(Br)n(C)n2)c(C)[nH]1`: 66 to 69 °C.
The same measure for `NC(Cc1ccccc1)C(O)C(O)C(N)Cc1ccccc1` (stereo not drawn): 115 to 119 °C; for `CC(=O)NC[C@H]1CN(c2ccc3c(c2)CSCC3)C(=O)O1`: 139 to 140 °C; for `Cc1cc(Cl)cc(C(=O)Nc2ccc(Cl)cn2)n1`: 151 °C.
The same measure for `Cc1cc(C)cc(OCC(=O)c2ccccc2)c1`: 104 to 105 °C; for `COc1ccc(CCN(C)CCc2ccc(NC(=O)c3cccc4c(=O)c5cccc(OC)c5[nH]c34)cc2)cc1OC`: 179 °C; for `c1ccc(COc2cnc(N3CCNCC3)nc2)cc1`: 94 to 97 °C.
`O=c1cc(-c2ccc(O)nc2)oc2ccccc12` returned a melting point of 296 to 297 °C.
Next, `CCOC(=O)c1[nH]cnc1CC`: 170 to 172 °C; `CCCCCc1ccc(C(=O)Cc2cccc(C#N)c2)cc1`: 73 °C; `O=c1[nH]c2ccccc2n1C1CCN(CC(O)COc2ccc(F)cc2)CC1` (stereo not drawn): 175 to 176 °C.
The compound `O=C(Nc1ccc2[nH]nc(C#Cc3ccccc3)c2c1)N[C@@H](c1ccc(Cl)c(Cl)c1)[C@@H]1CCCCN1` came in with a melting point of 160 °C.
With `C(=C\c1cc(/C=C/c2ccccc2OCc2ccccn2)[nH]n1)/c1ccc2cc[nH]c2c1`, the melting point fell in the range of 113 to 120 °C.
Next, `ClCCNc1ccnc2cc(Cl)ccc12`: 239 to 240 °C; `CC(C(=O)c1cccc(OCc2ccccc2)c1)N1CCC(n2c(=O)[nH]c3ccccc32)CC1` (stereo not drawn): 138 to 140 °C; `COC(=O)c1cccc2c(=O)c3cc(I)ccc3[nH]c12`: 224 to 226 °C.
Next, `Cc1c(F)cc2c(=O)c(C(=O)O)cn(CCF)c2c1F`: 215 to 217 °C.
For the compound `Brc1ccc2c(c1)N=C(N1CCN(Cc3ccccc3)CC1)c1cccc3c1N2CC3`, the melting point was in the range of 129 to 131 °C.
The same measure for `CCCc1nc2c(N)nc3cccnc3c2n1CCCCS(=O)(=O)NC`: 174 to 175 °C; for `CCOCc1nc2c(N)nc3cc(OCCCc4cccnc4)ccc3c2n1CC(C)(C)O`: 160 to 161 °C.
For the compound `CCOC(=O)c1c(NC(C)=O)sc2c1C=CC=CC=CC=CC=C2`, the melting point lay within 54 to 74 °C.
The same measure for `Cc1nc(N2CCN(Cc3c(C)noc3-c3ccccc3)C2=O)sc1C(=O)NCc1cccnc1`: 109 to 111 °C.

(Values after a melting point compilation (Tetko et al.; mined from patent text by program, amines drawn as free bases though some values may be those of a salt).)
